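Exposure lasted 48 hours, with cells grown in 96-well plates and compounds tested at five concentrations. TGI: total growth inhibition.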

The test system of the first experiment is SF-539 CNS. The experiment in a line: NCI tumour cell line growth inhibition, 48 h.
`CC1=C(C(=O)O)N2C(=O)[C@@H](NC(=O)C(c3ccc(O)cc3)N3CSC(=S)N(C(C)C)C3)C2SC1` (stereo partly drawn) returned a TGI of over 100 µM.

Compound `COc1cc(OC)c2c(c1)C(=O)C(CC(C)O)=CC2=O` (stereo not drawn) returned a TGI of 32.5 µM.

As to `Cc1csc(=S)n1OC(=O)NC1CCCCC1`, the TGI was over 100 µM.

In turn, `N#CCc1nc2ccccc2c(=O)[nH]1` came in with a TGI of over 100 µM.

Take `O=C(CSc1nnc(-c2ccc(N=Cc3ccc(Cl)cc3)cc2)o1)Nc1ccc(Cl)cc1Cl`: the TGI turned out to be 51.1 µM.

As for `COc1ccc(C2=Nc3ccccc3NC(=O)C2)cc1`, the TGI was found to be 65.6 µM.

In turn, `CCN(CC)CCCNc1nc(=O)[nH]c(C)c1C(=O)Nc1cccc2cc3ccccc3cc12` gave a TGI of over 100 µM.

With `O=S(=O)(O)c1ccc(O)c2ncc(Cl)cc12`, the TGI is over 100 µM.

`COc1cc(/C=C/C(=O)c2ccc(NS(=O)(=O)c3cc([N+](=O)[O-])ccc3C)cc2)cc(OC)c1OC` gave a TGI of 6.3 µM.

Consider `CCOC(=O)C(=[N+]=[N-])C(=O)C1(C(=O)OCC)CCN(C(=O)c2ccccc2)C1=O` (stereo not drawn), for which the TGI was over 100 µM.

In the case of `CCOC(=O)c1ccc(N=C2C(=S)N(c3ccc(C(=O)OCC)cc3)C(=N)N2/N=C/c2ccccc2)cc1`, the TGI is 51.2 µM.

In a further experiment the test system is OVCAR-5 ovarian. The experiment in a line: NCI tumour cell line growth inhibition, 48 h.
As for `O=C(COc1ccc2c(=O)cc(-c3ccccc3)oc2c1)N1CCN(c2ccccc2)CC1`, the TGI is over 100 µM.

`O=C(c1cccc2ccccc12)C1(Br)S(=O)(=O)OCCOS1(=O)=O` gave a TGI of over 100 µM.

Consider `Cn1cnc(CCc2ccccc2)n1`, for which the TGI is over 100 µM.

Compound `CCOC(=O)c1c(N)sc2c1C(C(=O)OCC)CC2` (stereo not drawn) came in with a TGI of over 100 µM.

For `O=C1C(Cl)=C(OCCCCl)C(=O)c2c(O)ccc(O)c21`, the TGI is 26.4 µM.

As to `CC1=C(C(=O)O)N2C(=O)[C@@H](NC(=O)C(c3ccc(O)cc3)N3CSC(=S)N(C(C)C)C3)C2SC1` (stereo partly drawn), the TGI was over 100 µM.

In turn, `COc1cc(OC)c2c(c1)C(=O)C(CC(C)O)=CC2=O` (stereo not drawn) showed a TGI of 32.3 µM.

As for `N#CCc1nc2ccccc2c(=O)[nH]1`, the TGI was over 100 µM.

`O=C(CSc1nnc(-c2ccc(N=Cc3ccc(Cl)cc3)cc2)o1)Nc1ccc(Cl)cc1Cl` returned a TGI of over 100 µM.

`COc1ccc(C2=Nc3ccccc3NC(=O)C2)cc1` showed a TGI of over 100 µM.

`CCN(CC)CCCNc1nc(=O)[nH]c(C)c1C(=O)Nc1cccc2cc3ccccc3cc12` displayed a TGI of over 100 µM.

`O=S(=O)(O)c1ccc(O)c2ncc(Cl)cc12` showed a TGI of over 100 µM.

Turning to `COc1cc(/C=C/C(=O)c2ccc(NS(=O)(=O)c3cc([N+](=O)[O-])ccc3C)cc2)cc(OC)c1OC`, the TGI stood at 11.8 µM.

`CCOC(=O)C(=[N+]=[N-])C(=O)C1(C(=O)OCC)CCN(C(=O)c2ccccc2)C1=O` (stereo not drawn) registered a TGI of over 100 µM.

Turning to `NC(=O)N/N=C1\CCCCc2ccccc21`, the TGI is over 10 µM.

Compound `CCOC(=O)c1ccc(N=C2C(=S)N(c3ccc(C(=O)OCC)cc3)C(=N)N2/N=C/c2ccccc2)cc1` yielded a TGI of 40.5 µM.

In a further experiment the test system is RPMI-8226 leukemia. The experiment in a line: NCI tumour cell line growth inhibition, 48 h.
`O=C(COc1ccc2c(=O)cc(-c3ccccc3)oc2c1)N1CCN(c2ccccc2)CC1`: the TGI was over 100 µM.

Compound `O=C(c1cccc2ccccc12)C1(Br)S(=O)(=O)OCCOS1(=O)=O` showed a TGI of over 100 µM.

`Cn1cnc(CCc2ccccc2)n1`: the TGI was over 100 µM.

On to `CCOC(=O)c1c(N)sc2c1C(C(=O)OCC)CC2` (stereo not drawn), for which the TGI is over 100 µM.

Compound `O=C1C(Cl)=C(OCCCCl)C(=O)c2c(O)ccc(O)c21` yielded a TGI of 5.58 µM.

As for `CC1=C(C(=O)O)N2C(=O)[C@@H](NC(=O)C(c3ccc(O)cc3)N3CSC(=S)N(C(C)C)C3)C2SC1` (stereo partly drawn), the TGI is over 100 µM.

In the case of `COc1cc(OC)c2c(c1)C(=O)C(CC(C)O)=CC2=O` (stereo not drawn), the TGI is 46.4 µM.

`Cc1csc(=S)n1OC(=O)NC1CCCCC1` yielded a TGI of over 71.8 µM.

`O=C(CSc1nnc(-c2ccc(N=Cc3ccc(Cl)cc3)cc2)o1)Nc1ccc(Cl)cc1Cl` registered a TGI of over 100 µM.

In turn, `CCN(CC)CCCNc1nc(=O)[nH]c(C)c1C(=O)Nc1cccc2cc3ccccc3cc12` had a TGI of over 100 µM.

`O=S(=O)(O)c1ccc(O)c2ncc(Cl)cc12` returned a TGI of over 100 µM.

The compound `COc1cc(/C=C/C(=O)c2ccc(NS(=O)(=O)c3cc([N+](=O)[O-])ccc3C)cc2)cc(OC)c1OC` returned a TGI of 6.21 µM.

With `NC(=O)N/N=C1\CCCCc2ccccc21`, the TGI was over 10 µM.

On to `CCOC(=O)c1ccc(N=C2C(=S)N(c3ccc(C(=O)OCC)cc3)C(=N)N2/N=C/c2ccccc2)cc1`, for which the TGI was over 100 µM.

For another experiment, the system named is HS 578T breast. As to the kind of experiment: NCI tumour cell line growth inhibition, 48 h.
`CCOC(=O)c1c(N)sc2c1C(C(=O)OCC)CC2` (stereo not drawn) returned a TGI of over 100 µM.

For `O=C1C(Cl)=C(OCCCCl)C(=O)c2c(O)ccc(O)c21`, the TGI stood at 22.8 µM.

For the compound `CCOC(=O)C(=[N+]=[N-])C(=O)C1(C(=O)OCC)CCN(C(=O)c2ccccc2)C1=O` (stereo not drawn), the TGI is over 100 µM.

Consider `CCOC(=O)c1ccc(N=C2C(=S)N(c3ccc(C(=O)OCC)cc3)C(=N)N2/N=C/c2ccccc2)cc1`, for which the TGI is over 100 µM.

Another experiment has as its system SF-268 CNS. The experiment in a line: NCI tumour cell line growth inhibition, 48 h.
In turn, `O=C(COc1ccc2c(=O)cc(-c3ccccc3)oc2c1)N1CCN(c2ccccc2)CC1` returned a TGI of over 100 µM.

In turn, `Cn1cnc(CCc2ccccc2)n1` gave a TGI of over 100 µM.

`O=C1C(Cl)=C(OCCCCl)C(=O)c2c(O)ccc(O)c21` returned a TGI of 8.61 µM.

In turn, `CC1=C(C(=O)O)N2C(=O)[C@@H](NC(=O)C(c3ccc(O)cc3)N3CSC(=S)N(C(C)C)C3)C2SC1` (stereo partly drawn) registered a TGI of over 100 µM.

Turning to `COc1cc(OC)c2c(c1)C(=O)C(CC(C)O)=CC2=O` (stereo not drawn), the TGI came out at 33 µM.

Take `Cc1csc(=S)n1OC(=O)NC1CCCCC1`: the TGI was over 100 µM.

`O=C(CSc1nnc(-c2ccc(N=Cc3ccc(Cl)cc3)cc2)o1)Nc1ccc(Cl)cc1Cl`: the TGI stood at 64.9 µM.

For the compound `COc1ccc(C2=Nc3ccccc3NC(=O)C2)cc1`, the TGI came out at 78.1 µM.

Turning to `CCOC(=O)C(=[N+]=[N-])C(=O)C1(C(=O)OCC)CCN(C(=O)c2ccccc2)C1=O` (stereo not drawn), the TGI is over 100 µM.

In turn, `NC(=O)N/N=C1\CCCCc2ccccc21` gave a TGI of over 10 µM.

`CCOC(=O)c1ccc(N=C2C(=S)N(c3ccc(C(=O)OCC)cc3)C(=N)N2/N=C/c2ccccc2)cc1` gave a TGI of 52 µM.

For a further experiment, the system named is 786-0 renal. As to the kind of experiment: NCI tumour cell line growth inhibition, 48 h.
`O=C(COc1ccc2c(=O)cc(-c3ccccc3)oc2c1)N1CCN(c2ccccc2)CC1`: the TGI was over 100 µM.

For `O=C(c1cccc2ccccc12)C1(Br)S(=O)(=O)OCCOS1(=O)=O`, the TGI is over 100 µM.

`Cn1cnc(CCc2ccccc2)n1` yielded a TGI of over 100 µM.

Compound `CCOC(=O)c1c(N)sc2c1C(C(=O)OCC)CC2` (stereo not drawn) had a TGI of over 100 µM.

In the case of `O=C1C(Cl)=C(OCCCCl)C(=O)c2c(O)ccc(O)c21`, the TGI was 4.81 µM.

`CC1=C(C(=O)O)N2C(=O)[C@@H](NC(=O)C(c3ccc(O)cc3)N3CSC(=S)N(C(C)C)C3)C2SC1` (stereo partly drawn) showed a TGI of over 100 µM.

Compound `COc1cc(OC)c2c(c1)C(=O)C(CC(C)O)=CC2=O` (stereo not drawn) displayed a TGI of 29.9 µM.

For `Cc1csc(=S)n1OC(=O)NC1CCCCC1`, the TGI is over 50 µM.

`N#CCc1nc2ccccc2c(=O)[nH]1` registered a TGI of over 100 µM.

`O=C(CSc1nnc(-c2ccc(N=Cc3ccc(Cl)cc3)cc2)o1)Nc1ccc(Cl)cc1Cl` showed a TGI of 51.8 µM.

As to `COc1ccc(C2=Nc3ccccc3NC(=O)C2)cc1`, the TGI is over 100 µM.

`CCN(CC)CCCNc1nc(=O)[nH]c(C)c1C(=O)Nc1cccc2cc3ccccc3cc12` gave a TGI of over 100 µM.
